The nature of data set [1]: Cytotoxicity assay, proliferation of exponentially growing MDBK cells (MTS/PMS). The data set is classed as cell-based, bovine. The conditions noted are these: bovine. The protocol: Assays were carried out, as described previously.
In a further data set the test system is BVDV NADL virus. The data set can be described thus: CPE-based antiviral assay, BVDV NADL in MDBK cells (MTS/PMS). As to conditions: for EC50: Bovine viral diarrhea virus isolates and strains, MDBK, 72 h; for S.I.: selectivity index, CC50 vs EC50.
The mark [2] stands for this setting: sheet CSFCI#, potency relative to TO505-6180 (EC50 0.07 µM).
The mark [3] stands for this setting: sheet CSFCII#, potency relative to TO502-2403 (EC50 0.2 µM).

Where only a bound is given, the exact number is not on record here.

The CC50 is the concentration at which the toxic effect on the cells reaches its halfway point. Read a low CC50 as harm at low concentration. Broadly, the EC50 is the concentration at which the effect is half-maximal. Higher therefore signals a less potent agent.

For the compound `Cc1ccc2nc(NC(=O)c3cccnc3)sc2c1` [CSFC-23, Cc1ccc2nc(NC(=O)c3cccnc3)sc2c1], the CC50 at 5 days in data set [1] was above 100 µM. In the data set on BVDV NADL virus, this compound returned an EC50 above 100 µM and a S.I. of 1. The fold increase in the data set with BVDV NADL virus (setting [2]) was determined as 0.0007.
The compound `Cc1cccc2sc(NC(=O)c3cc(-c4cccn4C)nc4ccccc34)nc12` [CSFC-88, Cn1cccc1c3nc2ccccc2c(c3)C(=O)Nc4nc5c(C)cccc5s4] registered a CC50 at 5 days in data set [1] above 100 µM. In the data set on BVDV NADL virus, the EC50 was 0.2 µM and the S.I. was 500. In addition, the fold increase in the data set with BVDV NADL virus (setting [3]) was 1.00.
`O=C(Nc1nc2cc(Cl)ccc2o1)c1cc(-c2ccccc2)nc2ccccc12` [CSFC-5, Clc1cc2nc(NC(=O)c3cc(nc4ccccc43)c3ccccc3)oc2cc1] showed a half-maximal cytotoxic concentration (CC50) at 5 days in data set [1] above 100 µM. Also, in the data set with BVDV NADL virus, the EC50 is above 100 µM and the S.I. is given as 1. For the same compound, in the data set with BVDV NADL virus (setting [2]), the fold increase came out at 0.0007.
In data set [1], `Cc1cccc2sc(NC(=O)c3cc(-c4cc5ccccc5o4)nc4ccccc34)nc12` [CSFC-90, Cc1cccc2sc(nc12)NC(=O)c4cc(nc3ccccc34)c5cc6ccccc6o5] gave a CC50 at 5 days above 100 µM. Also, in the data set with BVDV NADL virus, the EC50 was found to be 3 µM and the S.I. was found to be 33. In the data set on BVDV NADL virus (setting [3]), the fold increase was found to be 0.07.
In turn, `O=C(Nc1ccn(-c2cccc(Cl)c2)n1)c1cc(-c2ccccc2)nc2ccccc12` [CSFC-132, Clc1cccc(c1)n2ccc(n2)NC(=O)c4cc(nc3ccccc34)c5ccccc5] registered a CC50 at 5 days in data set [1] above 100 µM. The concentration giving a half-maximal response (EC50) with BVDV NADL virus was found to be 0.02 µM. For the same compound, the fold increase with BVDV NADL virus (setting [3]) worked out at 10.00.
For the compound `Cc1noc(C)c1NC(=O)c1cc(-c2ccccc2)nc2ccccc12` [CSFC-36, O=C(Nc1c(C)onc1C)c3cc(nc2ccccc23)c4ccccc4], in data set [1], the 50% cytotoxic concentration (CC50) at 5 days was above 100 µM. In the data set with BVDV NADL virus, this compound displayed a half-maximal effective concentration (EC50) of 47.2 µM and a S.I. of 2. In addition, the fold increase with BVDV NADL virus (setting [3]) was found to be 0.00424.
For `Cc1ccc2nc(NC(=O)c3ccccn3)sc2c1` [CSFC-25, Cc1ccc2nc(NC(=O)c3ccccn3)sc2c1], the CC50 at 5 days in data set [1] was above 100 µM. In the data set on BVDV NADL virus, this compound gave an EC50 above 100 µM and a S.I. of 1. The fold increase in the data set on BVDV NADL virus (setting [2]) worked out at 0.0007.
For `O=C(Nc1ccn(-c2cccc(F)c2)n1)c1cc(-c2ccccc2)nc2ccccc12` [CSFC-126, Fc1cccc(c1)n2ccc(n2)NC(=O)c4cc(nc3ccccc34)c5ccccc5], the CC50 at 5 days in data set [1] was above 100 µM. Besides, in the data set with BVDV NADL virus, a half-maximal response (EC50) required 0.6 µM and the S.I. came out at 167. Further, the fold increase in the data set with BVDV NADL virus (setting [3]) came to 0.33.
For `O=C(Nc1ccn(-c2ccc(Cl)cc2)n1)c1cc(-c2ccco2)nc2c(F)cccc12` [CSFC-104, Clc1ccc(cc1)n2ccc(n2)NC(=O)c4cc(nc3c(F)cccc34)c5ccco5], in that order: above 100 µM, 0.2 µM, 500 and 1.00.
In data set [1], `Cc1cc(NC(=O)c2cc(-c3ccccc3)nc3ccccc23)no1` [CSFC-40, Cc1cc(no1)NC(=O)c3cc(nc2ccccc23)c4ccccc4] showed a half-maximal cytotoxic concentration (CC50) at 5 days above 100 µM. In the data set on BVDV NADL virus, the EC50 came to 94 µM and the S.I. is on record as 1. The fold increase in the data set with BVDV NADL virus (setting [3]) amounted to 0.00213.
For `COc1ccc(-c2cc(C(=O)Nc3ccn(-c4ccccc4)n3)c3ccccc3n2)cc1` [CSFC-118, COc1ccc(cc1)c3nc2ccccc2c(c3)C(=O)Nc4ccn(n4)c5ccccc5], in that order: above 100 µM, 0.3 µM, 333 and 0.67.
Take `CCOc1ccc2nc(NC(=O)c3cc(-c4ccco4)nc4ccccc34)sc2c1` [CSFC-57, CCOc1ccc2nc(sc2c1)NC(=O)c4cc(nc3ccccc34)c5ccco5]: in data set [1], the CC50 at 5 days was above 100 µM. In the data set with BVDV NADL virus, this compound gave an EC50 of 0.5 µM and a S.I. of 200. For the same compound, in the data set with BVDV NADL virus (setting [3]), the fold increase is given as 0.40.
As for `O=C(Nc1nc2ccc([N+](=O)[O-])cc2s1)c1cc(-c2ccccc2)nc2ccccc12` [CSFC-12, [O-][N+](=O)c1ccc2nc(NC(=O)c3cc(nc4ccccc43)c3ccccc3)sc2c1], in data set [1], it took 46.8 µM to reach half-maximal cytotoxicity (CC50 at 5 days). Further, in the data set with BVDV NADL virus, the EC50 was above 100 µM and the S.I. was 0.5. In addition, the fold increase in the data set on BVDV NADL virus (setting [2]) is reported as 0.0007.
As for `COc1ccc2nc(NC(=O)c3cc(-c4ccco4)nc4ccc(F)cc34)sc2c1` [CSFC-63, Fc1cc2c(cc1)nc(cc2C(=O)Nc3nc4ccc(cc4s3)OC)c5ccco5], the CC50 at 5 days in data set [1] was above 100 µM. In the data set on BVDV NADL virus, a half-maximal effect (EC50) was put at 18.8 µM and the S.I. was 5. Besides, the fold increase with BVDV NADL virus (setting [3]) was 0.0106.
Compound `Cc1cccc2sc(NC(=O)c3cc(-c4ccc(F)cc4)nc4ccccc34)nc12` [CSFC-66, Fc1ccc(cc1)c3nc2ccccc2c(c3)C(=O)Nc4nc5c(C)cccc5s4] registered a CC50 at 5 days in data set [1] above 100 µM. In the data set with BVDV NADL virus, this compound gave an EC50 of 0.2 µM and a S.I. of 500. In the data set with BVDV NADL virus (setting [3]), the fold increase was determined as 1.00.
Consider `Cc1ccccc1-n1ccc(NC(=O)c2cc(-c3ccccc3)nc3ccccc23)n1` [CSFC-142, Cc1ccccc1n2ccc(n2)NC(=O)c4cc(nc3ccccc34)c5ccccc5], for which the CC50 at 5 days in data set [1] was 23 µM. Further, in the data set on BVDV NADL virus, the EC50 stood at 2.3 µM and the S.I. is given as 10. In addition, in the data set on BVDV NADL virus (setting [3]), the fold increase worked out at 0.09.
On to `Cc1cccc2sc(NC(=O)c3cc(-c4ccco4)nc4ccccc34)nc12` [CSFC-35, Cc1cccc2sc(nc12)NC(=O)c1cc(nc2ccccc21)c1ccco1], for which the CC50 at 5 days in data set [1] is above 100 µM. In the data set with BVDV NADL virus, this compound returned an EC50 of 0.3 µM and a S.I. of 333. For the same compound, the fold increase with BVDV NADL virus (setting [2]) worked out at 0.23.
The compound `COc1ccc2nc(NC(=O)c3cc(-c4ccsc4)nc4ccccc34)sc2c1` [CSFC-82, O=C(c2cc(nc1ccccc12)c3ccsc3)Nc4nc5ccc(cc5s4)OC] yielded a CC50 at 5 days in data set [1] above 100 µM. In the data set with BVDV NADL virus, this compound displayed an EC50 of 0.2 µM and a S.I. of 500. In addition, in the data set with BVDV NADL virus (setting [3]), the fold increase is listed as 1.00.
For `Cc1cccc2sc(NC(=O)c3cc(-c4ccco4)nc4ccc(F)cc34)nc12` [CSFC-71, Fc1cc2c(cc1)nc(cc2C(=O)Nc3nc4c(C)cccc4s3)c5ccco5], in that order: above 100 µM, 0.1 µM, 1000 and 2.00.
`O=C(Nc1nccs1)c1cc(-c2ccccc2)nc2ccccc12` [CSFC-16, O=C(c1cc(nc2ccccc12)c3ccccc3)Nc4nccs4] had a CC50 at 5 days in data set [1] above 100 µM. In the data set on BVDV NADL virus, a half-maximal effect (EC50) was put at 30 µM and the S.I. is 3. In addition, the fold increase in the data set on BVDV NADL virus (setting [3]) was 0.00667.
As for `O=C(Nc1ccn(-c2ccccc2)n1)c1cc(-c2ccc(F)cc2)nc2ccccc12` [CSFC-70, Fc1ccc(cc1)c3nc2ccccc2c(c3)C(=O)Nc4ccn(n4)c5ccccc5], in data set [1], the CC50 at 5 days is above 100 µM. In the data set on BVDV NADL virus, the EC50 came out at 0.1 µM and the S.I. is given as 1000. In the data set on BVDV NADL virus (setting [3]), the fold increase is 2.00.
In the case of `Cn1c(NC(=O)c2cc(-c3ccccc3)nc3ccccc23)nc2ccccc21` [CSFC-4, O=C(Nc1nc2ccccc2n1C)c1cc(nc2ccccc21)c1ccccc1], the CC50 at 5 days in data set [1] was above 100 µM. In the data set with BVDV NADL virus, this compound came in with an EC50 above 100 µM and a S.I. of 1. In addition, in the data set on BVDV NADL virus (setting [2]), the fold increase amounted to 0.0007.
As to `O=C(Nc1ccn(-c2ccccc2)n1)c1cc(-c2cccc3ccccc23)nc2ccccc12` [CSFC-143, O=C(c2cc(nc1ccccc12)c4cccc3ccccc34)Nc5ccn(n5)c6ccccc6], the CC50 at 5 days in data set [1] is above 100 µM. In the data set with BVDV NADL virus, this compound came in with an EC50 of 0.1 µM and a S.I. of 1000. Further, in the data set with BVDV NADL virus (setting [3]), the fold increase is 2.00.
For `O=C(Nc1ccn(-c2ccccc2)n1)c1cc(-c2ccccc2F)nc2c(F)cccc12` [CSFC-102, Fc1ccccc1c3nc2c(cccc2F)c(c3)C(=O)Nc4ccn(n4)c5ccccc5], in that order: above 100 µM, 0.3 µM, 333 and 0.67.
For `Cc1ccc2nc(-c3ccco3)cc(C(=O)Nc3nc4c(C)cccc4s3)c2c1` [CSFC-72, Cc1cc2c(cc1)nc(cc2C(=O)Nc3nc4c(C)cccc4s3)c5ccco5], in that order: above 100 µM, 8.7 µM, 11 and 0.023.
As for `O=C(Nc1ccn(-c2ccccc2)n1)c1cc(-c2cccnc2)nc2ccccc12` [CSFC-99, O=C(Nc1ccn(n1)c1ccccc1)c1cc(nc2ccccc21)c1cccnc1], the CC50 at 5 days in data set [1] is 72 µM. In the data set on BVDV NADL virus, this compound displayed an EC50 of 53.6 µM and a S.I. of 1. Also, the fold increase in the data set with BVDV NADL virus (setting [3]) is given as 0.00373.
In data set [1], `O=C(Nc1ccn(-c2ccc(F)cc2)n1)c1cc(-c2cccnc2)nc2ccccc12` [CSFC-129, Fc1ccc(cc1)n2ccc(n2)NC(=O)c4cc(nc3ccccc34)c5cccnc5] came in with a CC50 at 5 days of 68 µM. In the data set on BVDV NADL virus, this compound returned an EC50 of 1.4 µM and a S.I. of 49. In addition, the fold increase in the data set on BVDV NADL virus (setting [3]) was 0.14.
Regarding `COc1ccc2nc(NC(=O)c3cc(-c4ccco4)nc4ccc(OC)cc34)sc2c1` [CSFC-64, O=C(c2cc(nc1ccc(OC)cc12)c3ccco3)Nc4nc5ccc(cc5s4)OC], the CC50 at 5 days in data set [1] is above 100 µM. In the data set with BVDV NADL virus, this compound registered an EC50 of 16 µM and a S.I. of 6. Further, in the data set with BVDV NADL virus (setting [3]), the fold increase amounted to 0.0125.
As to `O=C(Nc1ccn(-c2ccccc2)n1)c1cc(-c2ccc(Cl)s2)nc2ccccc12` [CSFC-53, Clc1ccc(s1)c3nc2ccccc2c(c3)C(=O)Nc4ccn(n4)c5ccccc5], the CC50 at 5 days in data set [1] is above 100 µM. In the data set with BVDV NADL virus, this compound had an EC50 of 77.5 µM and a S.I. of 1. In the data set with BVDV NADL virus (setting [3]), the fold increase stood at 0.00258.
In turn, `O=C(Nc1ccn(-c2ccccc2)n1)c1cc(-c2ccccn2)nc2ccccc12` [CSFC-96, O=C(c2cc(nc1ccccc12)c3ccccn3)Nc4ccn(n4)c5ccccc5] came in with a CC50 at 5 days in data set [1] above 100 µM. In addition, in the data set on BVDV NADL virus, a half-maximal response (EC50) required 0.2 µM and the S.I. was determined as 500. Moreover, the fold increase with BVDV NADL virus (setting [3]) worked out at 1.00.

Values taken from paper PMC7144022, “Quinolinecarboxamides Inhibit the Replication of the Bovine Viral Diarrhea Virus by Targeting a Hot Spot for the Inhibition of Pestivirus Replication in the RNA-Dependent RNA Polymerase” (Molecules, 2020).
